# Results from patent US7897619B2, “Heterocyclic modulators of PKB” (Amgen Inc., priority 2007, dated 2011).
# Where a name gives a salt, the structure may show the parent alone.
# Target: PKBα (Homo sapiens, UniProt P31749)
# Experiment: PKB kinase assay (P33-labeled ATP, synthetic peptide substrate, filter plate)
# Assay type: biochemical
# Conditions: PKBα enzyme (full length or kinase domain with pleckstrin domain deleted)
# Excerpt: The kinase assay for evaluating PKB activity comprises active PKB enzymes, a PKB specific substrate, and P^33-labeled ATP. Two forms of PKBα enzymes were used, the full length PKBα and a kinase domain of PKBα with pleckstrin domain (amino acids 1-117) deleted. Both PKB enzymes were obtained from Upstate cell signaling solutions (Cat.# 14-276 and 14-341). The PKB substrate used is a synthetic peptide (ARKRERTYSFGHHA (SEQ ID NO: 1)) as described in Obata et al., J. Biol. Chem. 275 (46), 36108-36115 (2000). The phosphorylated substrate was captured by a phosphocellulose membrane filter plate (MILLIPORE) and measured by a Wallac Microbeta liquid scintillation counter (Perkin Elmer). Table 1 provides the IC50 values obtained for each of the examples with respect to PKBα.
# Sequence of PKBα (P31749 118-480 limits assumed): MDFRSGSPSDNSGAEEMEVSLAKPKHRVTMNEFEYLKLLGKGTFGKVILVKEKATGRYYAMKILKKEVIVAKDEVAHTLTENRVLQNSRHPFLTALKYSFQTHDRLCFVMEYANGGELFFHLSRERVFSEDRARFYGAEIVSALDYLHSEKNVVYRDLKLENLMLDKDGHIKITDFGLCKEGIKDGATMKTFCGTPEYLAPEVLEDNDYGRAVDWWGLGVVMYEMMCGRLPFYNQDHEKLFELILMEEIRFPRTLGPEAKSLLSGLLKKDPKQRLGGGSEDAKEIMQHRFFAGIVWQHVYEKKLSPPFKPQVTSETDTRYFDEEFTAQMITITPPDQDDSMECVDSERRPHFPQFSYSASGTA
row,SMILES,IC50 [nM]
1,"N[C@H](CNc1cnc(-c2ccc3cnccc3c2)s1)Cc1ccc(C(F)(F)F)cc1 [Example 41, N-((S)-2-Amino-3-(4-(trifluoromethyl)phenyl)propyl)-2-(isoquinolin-6-yl)thiazol-5-amine trifluoroacetate]",50 to 1000
2,"N[C@H](CNc1cnn(-c2ccc3cnccc3c2)c1)Cc1ccc(C(F)(F)F)cc1 [Example 42, N-((S)-2-Amino-3-(4-(trifluoromethyl)phenyl)propyl)-1-(isoquinolin-6-yl)-1H-pyrazol-4-amine]",50 to 1000
3,"N[C@H](CNc1nc(-c2ccc3cnccc3c2)ns1)Cc1ccc(C(F)(F)F)cc1 [Example 43, N-((S)-2-Amino-3-(4-(trifluoromethyl)phenyl)propyl)-3-(isoquinolin-6-yl)-1,2,4-thiadiazol-5-amine]",50 to 1000
4,"N[C@H](CNc1nc(-c2ccc3c(c2)CC(=O)N3)ns1)Cc1ccc(C(F)(F)F)cc1 [Example 44, 5-(5-((S)-2-Amino-3-(4-(trifluoromethyl)phenyl)propylamino)-1,2,4-thiadiazol-3-yl)indolin-2-one]",1000 to 10000
5,"N[C@H](CNc1nc(-c2ccc3[nH]ncc3c2)ns1)Cc1ccc(C(F)(F)F)cc1 [Example 45, N-((S)-2-Amino-3-(4-(trifluoromethyl)phenyl)propyl)-3-(1H-indazol-5-yl)-1,2,4-thiadiazol-5-amine]",1000 to 10000
6,"N[C@H](CNc1cnn(-c2ccc3cnccc3c2)c1)Cc1ccc(Cl)cc1 [Example 46, N-((S)-2-Amino-3-(4-chlorophenyl)propyl)-1-(isoquinolin-6-yl)-1H-pyrazol-4-amine]",50 to 1000
7,"N[C@H](CNc1nsc(-c2ccc3c(c2)CC(=O)N3)n1)Cc1ccc(C(F)(F)F)cc1 [Example 47, 5-(3-((S)-2-Amino-3-(4-(trifluoromethyl)phenyl)propylamino)-1,2,4-thiadiazol-5-yl)indolin-2-one]",50 to 1000
8,"N[C@H](CCc1nc(-c2ccc3c(c2)CC(=O)N3)no1)Cc1ccc(C(F)(F)F)cc1 [Example 48, 5-(5-((R)-3-Amino-4-(4-(trifluoromethyl)phenyl)butyl)-1,2,4-oxadiazol-3-yl)indolin-2-one]",50 to 1000
9,"N[C@@H](Cc1ccc(C(F)(F)F)cc1)c1nc(-c2ccc3c(c2)CC(=O)N3)no1 [Example 49, 5-(5-((S)-1-Amino-2-(4-(trifluoromethyl)phenyl)ethyl)-1,2,4-oxadiazol-3-yl)indolin-2-one]",1000 to 10000
10,"N[C@H](CCn1cc(-c2ccc3[nH]c(=O)oc3c2)cn1)Cc1ccc(Cl)cc1 [Example 50, 6-(1-((S)-3-Amino-4-(4-chlorophenyl)butyl)-1H-pyrazol-4-yl)benzo[d]oxazol-2(3H)-one]",< 50
11,"N[C@H](CCn1cc(-c2ccc3c(c2)CC(=O)N3)cn1)Cc1ccc(Cl)cc1 [Example 51, 5-(1-((S)-3-Amino-4-(4-chlorophenyl)butyl)-1H-pyrazol-4-yl)indolin-2-one]",< 50
12,"N[C@H](CCn1cc(-c2ccc3[nH]ncc3c2)cn1)Cc1ccc(Cl)cc1 [Example 52, (2S)-4-(4-(1H-Indazol-5-yl)-1H-pyrazol-1-yl)-1-(4-chlorophenyl)butan-2-amine]",< 50
13,"Cc1n[nH]c2ccc(-c3cnn(CC[C@@H](N)Cc4ccc(Cl)cc4)c3)cc12 [Example 53, (2S)-1-(4-Chlorophenyl)-4-(4-(3-methyl-1H-indazol-5-yl)-1H-pyrazol-1-yl)butan-2-amine]",< 50
14,"Cn1c(=O)[nH]c2ccc(-c3cnn(CC[C@@H](N)Cc4ccc(Cl)cc4)c3)cc21 [Example 54, 6-(1-((S)-3-Amino-4-(4-chlorophenyl)butyl)-1H-pyrazol-4-yl)-1-methyl-1H-benzo[d]imidazol-2(3H)-one]",50 to 1000
15,"N[C@H](CCn1cc(-c2ccc3cnc(F)cc3c2)cn1)Cc1ccc(Cl)cc1 [Example 55, (2S)-1-(4-Chlorophenyl)-4-(4-(3-fluoroisoquinolin-6-yl)-1H-pyrazol-1-yl)butan-2-amine]",< 50
16,"N[C@H](CCn1cc(-c2ccc3cnccc3c2)cn1)Cc1ccc(Cl)cc1 [Example 56, (2S)-1-(4-Chlorophenyl)-4-(4-(isoquinolin-6-yl)-1H-pyrazol-1-yl)butan-2-amine]",< 50
17,"N[C@H](CCn1cc(-c2ccc3cnccc3c2)cn1)Cc1ccc(C(F)(F)F)cc1 [Example 57, (2S)-4-(4-(Isoquinolin-6-yl)-1H-pyrazol-1-yl)-1-(4-(trifluoromethyl)phenyl)butan-2-amine]",< 50
18,"Cc1ccc(C[C@H](N)CCn2cc(-c3ccc4cnccc4c3)cn2)cc1 [Example 58, (2S)-4-(4-(Isoquinolin-6-yl)-1H-pyrazol-1-yl)-1-p-tolylbutan-2-amine]",50 to 1000
19,"N[C@H](CCn1cc(-c2ccc3cnccc3c2)cn1)Cc1cccc(Cl)c1 [Example 59, (2S)-1-(3-Chlorophenyl)-4-(4-(isoquinolin-6-yl)-1H-pyrazol-1-yl)butan-2-amine]",50 to 1000
20,"N[C@H](CCn1cc(-c2ccc3cnccc3c2)cn1)Cc1ccc(Cl)c(Cl)c1 [Example 60, (2S)-1-(3,4-Dichlorophenyl)-4-(4-(isoquinolin-6-yl)-1H-pyrazol-1-yl)butan-2-amine]",50 to 1000
21,"N[C@H](CCn1cc(-c2ccc3cnccc3c2)cn1)Cc1ccc(F)c(F)c1 [Example 61, (2S)-1-(3,4-Difluorophenyl)-4-(4-(isoquinolin-6-yl)-1H-pyrazol-1-yl)butan-2-amine]",50 to 1000
22,"N[C@H](CCn1cc(-c2ccc3cnccc3c2)cn1)Cc1ccc(F)cc1 [Example 62, (2S)-1-(4-Fluorophenyl)-4-(4-(isoquinolin-6-yl)-1H-pyrazol-1-yl)butan-2-amine]",50 to 1000
23,"N[C@H](CCn1cc(-c2ccc3cnccc3c2)cn1)Cc1ccc(Cl)cc1Cl [Example 63, (2S)-1-(2,4-Dichlorophenyl)-4-(4-(isoquinolin-6-yl)-1H-pyrazol-1-yl)butan-2-amine]",50 to 1000
24,"N[C@H](CCn1cc(-c2ccc3cnccc3c2)cn1)Cc1ccccc1 [Example 64, (2S)-4-(4-(Isoquinolin-6-yl)-1H-pyrazol-1-yl)-1-phenylbutan-2-amine]",50 to 1000
25,"N[C@@H](Cc1ccc(C(F)(F)F)cc1)Cn1cc(-c2ccc3cnccc3c2)cn1 [Example 65, (2S)-1-(4-(Isoquinolin-6-yl)-1H-pyrazol-1-yl)-3-(4-(trifluoromethyl)phenyl)-propan-2-amine]",50 to 1000
26,"N[C@H](CCc1nnc(-c2ccc3cnccc3c2)o1)Cc1ccc(C(F)(F)F)cc1 [Example 66, (2R)-4-(5-(Isoquinolin-6-yl)-1,3,4-oxadiazol-2-yl)-1-(4-(trifluoromethyl)phenyl)butan-2-amine]",50 to 1000
27,"N[C@H](CCc1cn(-c2ccc3[nH]ncc3c2)nn1)Cc1ccc(C(F)(F)F)nc1 [Example 67, (2R)-4-(1-(1H-Indazol-5-yl)-1H-1,2,3-triazol-4-yl)-1-(6-(trifluoromethyl)pyridin-3-yl)butan-2-amine bistrifluoroacetate]",50 to 1000
